Source: patent publication US11325900B2, “5-(pyrimidin-4-yl)thiazol-2-yl urea derivatives as therapeutic agents” (AUCENTRA HOLDINGS PTY LTD, priority 2018, dated 2022)

What was measured:
[1] = system: acute myeloid leukaemia (AML) cell lines; settings: background; cited from earlier work
[2] = system: mouse model of AML; settings: background; cited from earlier work
[3] = target: T1, CDK8/CycC (Homo sapiens, UniProt P49336); experiment: Radiometric protein kinase assay (33PanQinase Activity Assay, ProQinase); assay type: biochemical; settings: 1.0 μM ATP, 1.0 μg/50 μL substrate RBER-IRStide, duplicate measurements, read-out: CDK8 Kinase inhibition IC50
T1 construct: purchased ProQinase GmbH, Freiburg, Germany
In short: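 33P radiometric kinase assay on CDK8/CycC with 1.0 μM ATP and 1.0 μg/50 μL RBER-IRStide substrate. IC50 values came from duplicate measurements. Ki was calculated from IC50 and Km(ATP).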

[4] = system: HCT-116; experiment: Cell viability assay (MTT, solid tumour cell lines), 72 h growth inhibition; assay type: cell-based; settings: Homo sapiens, HCT-116 cells
From the text: (§1) Compounds from Example 1 may be subjected to a standard MTT (3-(4,5-dimethylthiazol-2-yl)-2,5-diphenyltetrazolium bromide) and resazurin assays on solid tumour cell lines and leukemia cell lines, respectively, as previously reported (Wang S et al., J Med Chem 47:1662-1675, 2004 and Diab S e al. CheMedChem 9:962-972, 2014). Compound concentrations required to inhibit 50% of cell growth (GI50) can be calculated using non-linear regression analysis.

[5] = system: MV-4-11; experiment: Cell viability assay (resazurin, leukemia cell lines), 72 h growth inhibition; assay type: cell-based; settings: Homo sapiens, MV4-11, MV-4-11 cells
From the text: as §1

T1 sequence (P49336 whole entry): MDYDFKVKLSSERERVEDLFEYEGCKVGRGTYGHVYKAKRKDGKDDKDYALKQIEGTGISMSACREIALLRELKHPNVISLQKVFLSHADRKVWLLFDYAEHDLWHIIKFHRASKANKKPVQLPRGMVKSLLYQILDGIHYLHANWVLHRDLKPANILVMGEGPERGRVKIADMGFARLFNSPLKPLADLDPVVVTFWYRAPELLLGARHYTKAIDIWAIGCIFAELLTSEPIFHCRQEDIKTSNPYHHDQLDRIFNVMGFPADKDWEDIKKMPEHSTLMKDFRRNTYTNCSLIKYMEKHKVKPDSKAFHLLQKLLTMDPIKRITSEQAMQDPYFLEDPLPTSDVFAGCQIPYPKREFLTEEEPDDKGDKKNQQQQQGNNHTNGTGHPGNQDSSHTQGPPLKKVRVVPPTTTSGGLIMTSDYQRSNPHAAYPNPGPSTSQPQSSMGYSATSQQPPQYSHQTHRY
T1 sequence (P24863 whole entry partner): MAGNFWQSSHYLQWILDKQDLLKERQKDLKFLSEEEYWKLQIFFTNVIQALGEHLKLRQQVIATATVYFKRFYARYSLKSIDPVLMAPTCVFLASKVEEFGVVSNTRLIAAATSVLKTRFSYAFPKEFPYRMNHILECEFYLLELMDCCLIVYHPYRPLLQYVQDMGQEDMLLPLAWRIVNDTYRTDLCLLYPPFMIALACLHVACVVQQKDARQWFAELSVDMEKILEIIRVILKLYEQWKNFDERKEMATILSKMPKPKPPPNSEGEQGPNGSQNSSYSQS

Molecule	IC50 [3] [nM]	GI50 [4] [nM]	GI50 [5] [nM]	Suppression of cell growth (in words) [1]	Anticancer activity (in words) [2]
cortistatin A	–	–	–	suppress cell growth	shows anticancer activity
CNc1nccc(-c2sc(NC(=O)Nc3ccc(CN4CCN(C)CC4)c(C(F)(F)F)c3)nc2C)n1 [Compound 32, 1-(4-Methyl-5-(2-(methylamino)-pyrimidin-4-yl)thiazol-2-yl)-3-(4-((4-methylpiperazin-1-yl)methyl)-3-(trifluoromethyl)phenyl)urea]	12	366 ± 90	< 1	–	–

More lines, main results first:

IC50 [3] [nM]	GI50 [4] [nM]	GI50 [5] [nM]	Molecule	Suppression of cell growth (in words) [1]	Anticancer activity (in words) [2]
12	7250 ± 310	3480 ± 9530	CNc1nccc(-c2sc(NC(=O)Nc3ccc(Cl)c(C(F)(F)F)c3)nc2C)n1 [Compound 24, 1-(4-Chloro-3-(trifluoromethyl)-phenyl)-3-(4-methyl-5-(2-(methylamino)-pyrimidin-4-yl)thiazol-2-yl)urea]	–	–
8	2350 ± 3210	4390 ± 1020	CNc1nccc(-c2sc(NC(=O)Nc3ccc(Cl)c(C)c3)nc2C)n1 [Compound 30, 1-(4-Chloro-3-methylphenyl)-3-(4-methyl-5-(2-(methylamino)-pyrimidin-4-yl)thiazol-2-yl)urea]	–	–
10	510 ± 30	870 ± 360	CNc1nccc(-c2sc(NC(=O)Nc3cccc(C(F)(F)F)c3)nc2C)n1 [Compound 10, 1-(4-Methyl-5-(2-(methylamino)-pyrimidin-4-yl)thiazol-2-yl)-3-(3-(trifluoromethyl)phenyl)urea]	–	–
